Results taken from ChEMBL document CHEMBL2074102, “Expression and functional characterization of rat organic anion transporter 3 (rOat3) in the choroid plexus” (Mol Pharmacol, 2002).

T1: Organic anion transporter 3 (Rattus norvegicus, UniProt Q9R1U7)
T1 sequence (Q9R1U7 whole entry): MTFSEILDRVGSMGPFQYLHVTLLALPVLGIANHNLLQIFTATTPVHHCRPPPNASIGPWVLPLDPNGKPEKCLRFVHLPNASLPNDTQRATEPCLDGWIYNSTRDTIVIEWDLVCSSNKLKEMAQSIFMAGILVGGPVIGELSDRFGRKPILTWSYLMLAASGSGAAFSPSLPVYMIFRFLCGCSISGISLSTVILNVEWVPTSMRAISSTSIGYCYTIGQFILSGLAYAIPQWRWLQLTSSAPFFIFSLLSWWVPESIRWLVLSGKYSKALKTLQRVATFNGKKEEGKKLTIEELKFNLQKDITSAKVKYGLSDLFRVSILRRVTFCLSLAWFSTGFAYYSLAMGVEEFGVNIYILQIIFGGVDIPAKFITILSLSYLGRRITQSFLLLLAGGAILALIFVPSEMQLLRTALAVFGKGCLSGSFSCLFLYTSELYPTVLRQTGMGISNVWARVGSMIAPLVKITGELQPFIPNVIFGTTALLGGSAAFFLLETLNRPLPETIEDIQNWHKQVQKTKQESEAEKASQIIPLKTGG

T2: Solute carrier family 22 member 6 (Rattus norvegicus, UniProt O35956)
T2 sequence (O35956 whole entry): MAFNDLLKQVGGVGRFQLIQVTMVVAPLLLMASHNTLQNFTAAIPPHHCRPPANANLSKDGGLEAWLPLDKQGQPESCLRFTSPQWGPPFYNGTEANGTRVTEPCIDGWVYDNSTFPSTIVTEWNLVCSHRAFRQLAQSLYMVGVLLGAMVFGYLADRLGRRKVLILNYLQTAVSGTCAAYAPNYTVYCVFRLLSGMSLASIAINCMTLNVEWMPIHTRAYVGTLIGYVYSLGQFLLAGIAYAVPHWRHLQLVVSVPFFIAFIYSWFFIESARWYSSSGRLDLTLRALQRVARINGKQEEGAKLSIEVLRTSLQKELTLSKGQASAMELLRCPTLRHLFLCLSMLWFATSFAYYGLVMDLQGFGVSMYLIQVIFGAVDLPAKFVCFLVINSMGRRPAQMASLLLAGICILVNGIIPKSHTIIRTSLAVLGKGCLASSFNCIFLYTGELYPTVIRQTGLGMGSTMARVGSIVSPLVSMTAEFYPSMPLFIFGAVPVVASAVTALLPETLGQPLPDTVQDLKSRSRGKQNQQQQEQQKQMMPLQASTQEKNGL


Legend:
Assay type in all cases: functional, cell-based
[1] = target: T1, Organic anion transporter 3; assay: TP_TRANSPORTER: inhibition of PCG uptake in Oat3-expressing LLC-PK1 cells
[2] = target: T1, Organic anion transporter 3; assay: TP_TRANSPORTER: inhibition of PCG uptake in OAT3-expressing LLC-PK1 cells
[3] = target: T2, Solute carrier family 22 member 6; assay: TP_TRANSPORTER: inhibition of PAH uptake in Oat1-expressing LLC-PK1 cells
[4] = substrate: CC1(C)S[C@@H]2[C@H](NC(=O)Cc3ccccc3)C(=O)N2[C@H]1C(=O)O; assay: TP_TRANSPORTER: uptake in Oat3-expressing LLC-PK1 cells

Row | Molecule | Ki [1] | Ki [2] | Ki [3] | also measured
1 | CCCN(CCC)S(=O)(=O)c1ccc(C(=O)O)cc1 [PROBENECID] | 4.43 µM |  |  | 
2 | CN/C(=N/CCSCc1nc[nH]c1C)NC#N [CIMETIDINE] |  | 46.8 µM | > 1000 µM | 
3 | Nc1ccc(C(=O)NCC(=O)O)cc1 [AMINOHIPPURIC ACID] | 398 µM |  |  | 
4 | C[C@]12CC[C@@H]3c4ccc(OS(=O)(=O)O)cc4CC[C@H]3[C@@H]1CCC2=O [ESTRONE SULFURIC ACID] |  | 9.1 µM |  | 
5 | C[C@]12CC[C@@H]3c4ccc(O)cc4CC[C@H]3[C@@H]1CC[C@@H]2O[C@@H]1O[C@H](C(=O)O)[C@@H](O)[C@H](O)[C@H]1O [ESTRADIOL 17B GLUCURONIDE] | 35.6 µM |  | > 300 µM | 
6 | Organic anion transporter 3 (Rattus norvegicus) (protein) MTFSEILDRVGSMGPFQYLHVTLLALPVLGIANHNLLQIFTATTPVHHCRPPPNASIGPWVLPLDPNGKPEKCLRFVHLPNASLPNDTQRATEPCLDGWIYNSTRDTIVIEWDLVCSSNKLKEMAQSIFMAGILVGGPVIGELSDRFGRKPILTWSYLMLAASGSGAAFSPSLPVYMIFRFLCGCSISGISLSTVILNVEWVPTSMRAISSTSIGYCYTIGQFILSGLAYAIPQWRWLQLTSSAPFFIFSLLSWWVPESIRWLVLSGKYSKALKTLQRVATFNGKKEEGKKLTIEELKFNLQKDITSAKVKYGLSDLFRVSILRRVTFCLSLAWFSTGFAYYSLAMGVEEFGVNIYILQIIFGGVDIPAKFITILSLSYLGRRITQSFLLLLAGGAILALIFVPSEMQLLRTALAVFGKGCLSGSFSCLFLYTSELYPTVLRQTGMGISNVWARVGSMIAPLVKITGELQPFIPNVIFGTTALLGGSAAFFLLETLNRPLPETIEDIQNWHKQVQKTKQESEAEKASQIIPLKTGG |  |  |  | Km [4]: 82.6 µM
